We go through 24 compounds from PubChem BioAssay AID330 (DTP/NCI, 2004).

“And” between values parts separate entries of the source, which are not always exact repeats. Equal values may be shown once. Toxic doses and inconclusive results are not listed.

The subject of the assay is P388 leukemia ip, CD2F1 mice, survival T/C. As to the kind of experiment: NCI In Vivo Anticancer Drug Screen. Data for tumor model P388 Leukemia (intraperitoneal) in CD2F1 (CDF1) mice. The conditions noted are these: endpoint: median survival time, higher = longer survival. The essentials: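 Mice carrying the transplanted tumor received test compound or vehicle. Survival was recorded in each group, and the value is the treated-group measurement divided by that of the vehicle-treated control group.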

[1] abbreviates: dose: 50.0 mg/kg/injection, schedule: Q01DX009 (ip), vehicle: saline.
Where [2] appears, read: dose: 100.0 mg/kg/injection, schedule: Q01DX009 (ip), vehicle: saline.
Setting [3] is: dose: 200.0 mg/kg/injection, schedule: Q01DX009 (ip), vehicle: saline.
Setting [4] is: dose: 100.0 mg/kg/injection, schedule: Q01DX001 (ip), vehicle: Klucel (hydroxypropylcellulose) (HPC).
Setting [5] is: dose: 200.0 mg/kg/injection, schedule: Q01DX001 (ip), vehicle: Klucel (hydroxypropylcellulose) (HPC).
Where [6] appears, read: dose: 400.0 mg/kg/injection, schedule: Q01DX001 (ip), vehicle: Klucel (hydroxypropylcellulose) (HPC).
[7] abbreviates: dose: 50.0 mg/kg/injection, schedule: Q01DX005 (ip), vehicle: saline with Tween-80.
The mark [8] stands for this setting: dose: 100.0 mg/kg/injection, schedule: Q01DX005 (ip), vehicle: saline with Tween-80.
Setting [9] is: dose: 200.0 mg/kg/injection, schedule: Q01DX005 (ip), vehicle: saline with Tween-80.
Setting [10] is: dose: 50.0 mg/kg/injection, schedule: Q01DX009 (ip), vehicle: saline with Tween-80.
Where [11] appears, read: dose: 100.0 mg/kg/injection, schedule: Q01DX009 (ip), vehicle: saline with Tween-80.
Where [12] appears, read: dose: 200.0 mg/kg/injection, schedule: Q01DX009 (ip), vehicle: saline with Tween-80.
The mark [13] stands for this setting: dose: 50.0 mg/kg/injection, schedule: Q01DX005 (ip), vehicle: saline.
Where [14] appears, read: dose: 100.0 mg/kg/injection, schedule: Q01DX005 (ip), vehicle: saline.

As for `O=C(O)c1cnc2ccccn12`, the T/C is 112 % of control (dose: 50.0 mg/kg/injection, schedule: Q01DX009 (ip), vehicle: acetone); 95 % of control under setting [1]; 117 % of control (dose: 100.0 mg/kg/injection, schedule: Q01DX009 (ip), vehicle: acetone); 96 % of control under setting [2]; 102 % of control (dose: 200.0 mg/kg/injection, schedule: Q01DX009 (ip), vehicle: acetone); 107 % of control under setting [3].

On to `COc1ccc(CC(=O)c2ccc(OC)cc2O)cc1`, for which the T/C is, setting by setting: (dose: 100.0 mg/kg/injection, schedule: Q01DX001 (ip), vehicle: saline with Tween-80) 103 % of control; (dose: 200.0 mg/kg/injection, schedule: Q01DX001 (ip), vehicle: saline with Tween-80) 104 % of control; (dose: 400.0 mg/kg/injection, schedule: Q01DX001 (ip), vehicle: saline with Tween-80) 101 % of control.

`Cc1cccc(N2C(c3ccccc3)c3ccc(C)cc3NS2=O)c1` (stereo not drawn): the T/C reads like this: (dose: 60.0 mg/kg/injection, schedule: Q01DX005 (ip), vehicle: saline with Tween-80) 97 % of control; (dose: 120.0 mg/kg/injection, schedule: Q01DX005 (ip), vehicle: saline with Tween-80) 90 % of control; (dose: 240.0 mg/kg/injection, schedule: Q01DX005 (ip), vehicle: saline with Tween-80) 95 % of control.

For the compound `CCN(CC)C1CS(=O)(=O)OC2=C1Cc1ccccc1CC2` (stereo not drawn), the T/C is 100 % of control (dose: 50.0 mg/kg/injection, schedule: Q04DX003 (ip), vehicle: Klucel (hydroxypropylcellulose) (HPC)); 99 % of control (dose: 100.0 mg/kg/injection, schedule: Q04DX003 (ip), vehicle: Klucel (hydroxypropylcellulose) (HPC)); 105 % of control (dose: 200.0 mg/kg/injection, schedule: Q04DX003 (ip), vehicle: Klucel (hydroxypropylcellulose) (HPC)).

For `N=c1ccn2c(n1)OC1C(OP(=O)(O)O)C(CO)OC12` (stereo not drawn), the T/C (dose: 177.0 mg/kg/injection, schedule: Q04DX003 (ip), vehicle: saline with Tween-80) is 154 % of control.

As to `CC(C)n1c(Cl)c(C=O)c2ccccc21`, the T/C by setting is: under setting [4], 94 % of control; under setting [5], 87 % of control; under setting [6], 98 % of control.

Regarding `NC(=O)C1C2C=CC(O2)C1C(=O)O` (stereo not drawn), the T/C (dose: 7.5 mg/kg/injection, schedule: Q01DX005 (ip), vehicle: saline) was 100 % of control; the T/C (dose: 15.0 mg/kg/injection, schedule: Q01DX005 (ip), vehicle: saline) was 104 % of control; the T/C (dose: 30.0 mg/kg/injection, schedule: Q01DX005 (ip), vehicle: saline) was 104 % of control.

As for `O=C(COc1ccc(Cl)cc1)OC(=O)COc1ccc(Cl)cc1`, the T/C (dose: 25.0 mg/kg/injection, schedule: Q01DX009 (ip), vehicle: other) is 110 % of control; the T/C (dose: 50.0 mg/kg/injection, schedule: Q01DX009 (ip), vehicle: other) is 112 % of control; the T/C (dose: 100.0 mg/kg/injection, schedule: Q01DX009 (ip), vehicle: other) is 110 % of control; the T/C (dose: 200.0 mg/kg/injection, schedule: Q01DX009 (ip), vehicle: other) was 106 % of control.

On to `O=C(Nc1ccccc1C(F)(F)F)c1cccc(Cl)c1`, for which the T/C was 109 % of control (dose: 100.0 mg/kg/injection, schedule: Q04DX003 (ip), vehicle: saline + alcohol); 100 % of control (dose: 200.0 mg/kg/injection, schedule: Q04DX003 (ip), vehicle: saline + alcohol); 100 % of control (dose: 400.0 mg/kg/injection, schedule: Q04DX003 (ip), vehicle: saline + alcohol).

Regarding `CCc1ccc2c(c1)C(O)(c1ccccc1)c1c(c(-c3ccccc3)c3ccccc3c1-c1ccccc1)C2(O)c1ccccc1` (stereo not drawn), the T/C was 92 % of control under setting [7], 89 % of control under setting [8] and 89 % of control under setting [9].

Take `Cc1cc(N/N=C/c2ccccn2)c2cc3c(cc2n1)OCO3`: the T/C was 103 % of control (dose: 12.5 mg/kg/injection, schedule: Q01DX005 (ip), vehicle: Klucel (hydroxypropylcellulose) (HPC)); 104 % of control (dose: 25.0 mg/kg/injection, schedule: Q01DX005 (ip), vehicle: Klucel (hydroxypropylcellulose) (HPC)); 101 % of control and 104 % of control (dose: 50.0 mg/kg/injection, schedule: Q01DX005 (ip), vehicle: Klucel (hydroxypropylcellulose) (HPC)).

`CC(C)(c1ccc(OCC2CO2)cc1)c1ccc(OCC2CO2)cc1` (stereo not drawn): the T/C is 103 % of control (dose: 25.0 mg/kg/injection, schedule: Q01DX009 (ip), vehicle: saline with Tween-80); 103 % of control and 107 % of control under setting [10]; 103 % of control under setting [11]; 109 % of control under setting [12]; 114 % of control (dose: 400.0 mg/kg/injection, schedule: Q01DX009 (ip), vehicle: saline with Tween-80).

For `CN(C)C(=O)NCCCCCCNC(=O)N(C)C`, the T/C by setting is: under setting [1], 105 % of control; under setting [2], 100 % of control; under setting [3], 110 % of control.

As for `O=CCC1CC2CCCCN2O1` (stereo not drawn), the T/C was 102 % of control (dose: 25.0 mg/kg/injection, schedule: Q04DX003 (ip), vehicle: saline with Tween-80); 101 % of control (dose: 50.0 mg/kg/injection, schedule: Q04DX003 (ip), vehicle: saline with Tween-80); 108 % of control (dose: 100.0 mg/kg/injection, schedule: Q04DX003 (ip), vehicle: saline with Tween-80).

On to `CC1C(=O)OC2CC[N+]3(C(=O)C(F)(F)F)CC4OC4(COC(=O)C(C)(O)C1(C)O)C23` (stereo not drawn), for which the T/C is, setting by setting: (dose: 60.0 mg/kg/injection, schedule: Q01DX005 (ip), vehicle: suspension in saline) 104 % of control; (dose: 120.0 mg/kg/injection, schedule: Q01DX005 (ip), vehicle: suspension in saline) 93 % of control; (dose: 240.0 mg/kg/injection, schedule: Q01DX005 (ip), vehicle: suspension in saline) 92 % of control.

`CN(/N=C\c1ccccc1)C(=N)N(C)/N=C/c1ccccc1`: the T/C runs as follows: under setting [4], 91 % of control; under setting [5], 96 % of control.

With `Cc1ccc(-c2nc3ccccc3c(=O)n2/N=C/c2ccc(O)cc2)cc1`, the T/C under setting [7] was 100 % of control, the T/C under setting [8] is 99 % of control and the T/C under setting [9] was 89 % of control.

On to `CC1(C)CCC[C@](C)(O)C2CCC=CC21` (stereo partly drawn), for which the T/C (dose: 100.0 mg/kg/injection, schedule: Q04DX002 (ip), vehicle: Klucel (hydroxypropylcellulose) (HPC)) was 106 % of control; the T/C (dose: 200.0 mg/kg/injection, schedule: Q04DX002 (ip), vehicle: Klucel (hydroxypropylcellulose) (HPC)) is 104 % of control; the T/C (dose: 400.0 mg/kg/injection, schedule: Q04DX002 (ip), vehicle: Klucel (hydroxypropylcellulose) (HPC)) is 114 % of control.

With `O=c1[nH]c2nc3ccccc3n2c(=O)c2ccccc12`, the T/C runs as follows: under setting [4], 98 % of control; under setting [5], 98 % of control; under setting [6], 95 % of control.

Regarding `CN(/N=C/c1ccccc1O)C(=O)c1ccccc1N`, the T/C reads like this: under setting [10], 105 % of control; under setting [11], 107 % of control; under setting [12], 104 % of control.

Turning to `O=C(NC(Cc1ccc(Br)cc1)C(=O)O)c1cccc(Cl)c1` (stereo not drawn), the T/C was 100 % of control under setting [13] and 101 % of control under setting [14].

In the case of `Cc1cc(NC(=O)C(=O)CC(=O)c2ccc(Cl)s2)no1`, the T/C (dose: 100.0 mg/kg/injection, schedule: Q04DX002 (ip), vehicle: saline with Tween-80) was 99 % of control; the T/C (dose: 200.0 mg/kg/injection, schedule: Q04DX002 (ip), vehicle: saline with Tween-80) was 104 % of control; the T/C (dose: 400.0 mg/kg/injection, schedule: Q04DX002 (ip), vehicle: saline with Tween-80) is 107 % of control.

On to `NC(CSSCC(N)C(=O)NCC(=O)O)C(=O)NCC(=O)O` (stereo not drawn), for which the T/C was 106 % of control under setting [13]; 100 % of control under setting [14]; 104 % of control (dose: 200.0 mg/kg/injection, schedule: Q01DX005 (ip), vehicle: saline).

Take `COc1c(CO)c2c(c(OC)c1OC)-c1ccc(OC)c(=O)cc1[C@@H](NC(C)=O)CC2`: the T/C reads like this: (dose: 25.0 mg/kg/injection, schedule: Q01DX009 (ip), vehicle: Klucel (hydroxypropylcellulose) (HPC)) 160 % of control; (dose: 50.0 mg/kg/injection, schedule: Q01DX009 (ip), vehicle: Klucel (hydroxypropylcellulose) (HPC)) 185 % of control.
